Test results: patent US8802678B2, “Carbonylated (aza) cyclohexanes as dopamine D3 receptor ligands” (Bioprojet, priority 2006, dated 2014)

melting point [°C]	Compound
171 to 173	N#CCCCC(=O)N[C@H]1CC[C@H](CCN2CCN(c3cccc(Cl)c3)CC2)CC1 [Example 229, N-(4-{2-[4-(3-Chlorophenyl)-piperazin-1-yl]ethyl}cyclohexyl)-4-cyanobutanamide]
162	Cc1c(N2CCN(CC[C@H]3CC[C@H](NC(=O)CCCC#N)CC3)CC2)cccc1C(F)(F)F [Example 230, 4-Cyano-N-(4-{2-[4-(2-methyl-3-trifluoromethylphenyl)piperazin-1-yl]ethyl}cyclohexyl)butanamide]
142	N#CCCCC(=O)N[C@H]1CC[C@H](CCN2CCN(c3ccccc3Cl)CC2)CC1 [Example 233, N-(4-{2-[4-(2-Chlorophenyl)piperazin-1-yl]ethyl}cyclohexyl)-4-cyanobutanamide]
150	Cc1cccc(N2CCN(CC[C@H]3CC[C@H](NC(=O)CCCC#N)CC3)CC2)c1 [Example 234, 4-Cyano-N-{4-[2-(4-m-tolylpiperazin-1-yl)ethyl]cyclohexyl}butanamide]
130	CSc1ccccc1N1CCN(CC[C@H]2CC[C@H](NC(=O)CCCC#N)CC2)CC1 [Example 236, 4-Cyano-N-(4-{2-[4-(2-methylsulfanylphenyl)piperazin-1-yl]ethyl}cyclohexyl)butanamide]
127	CSc1cccc(N2CCN(CC[C@H]3CC[C@H](NC(=O)CCCC#N)CC3)CC2)c1 [Example 238, 4-Cyano-N-(4-{2-[4-(3-methylsulfanylphenyl)piperazin-1-yl]ethyl}cyclohexyl)butanamide]
194	CS(=O)(=O)Nc1cccc(N2CCN(CC[C@H]3CC[C@H](NC(=O)CC#N)CC3)CC2)c1 [Example 240, 2-Cyano-N-(4-{2-[4-(3-methanesulfonylaminophenyl)piperazin-1-yl]ethyl}cyclohexyl)-acetamide]
209	N#CCC(=O)N[C@H]1CC[C@H](CCN2CCN(c3ccc(F)cc3)CC2)CC1 [Example 241, 2-Cyano-N-(4-{2-[4-(4-fluoro-phenyl)piperazin-1-yl]ethyl}cyclohexyl)acetamide]
237	Cc1ccc(N2CCN(CC[C@H]3CC[C@H](NC(=O)CC#N)CC3)CC2)cc1 [Example 242, 2-Cyano-N-{4-[2-(4-p-tolylpiperazin-1-yl)ethyl]cyclohexyl}acetamide]

Second part, the compound before the results:

Compound	melting point [°C]
CC(=O)CCC(=O)N[C@H]1CC[C@H](CCN2CCN(c3cccc(C(F)(F)F)c3F)CC2)CC1 [Example 231, 4-Oxopentanoic acid (4-{2-[4-(2-fluoro-3-trifluoromethyl-phenyl)piperazin-1-yl]ethyl}cyclohexyl)amide]	178
CC(C)(C)c1cc(N2CCN(CC[C@H]3CC[C@H](NC(=O)CC#N)CC3)CC2)cc(C(C)(C)C)c1 [Example 232, 2-Cyano-N-(4-{2-[4-(3,5-di-tert-butylphenyl)piperazin-1-yl]ethyl}cyclohexyl)acetamide]	168
Cc1cccc(N2CCN(CC[C@H]3CC[C@H](NC(=O)CC(F)(F)F)CC3)CC2)c1 [Example 235, 3,3,3-Trifluoro-N-{4-[2-(4-m-tolylpiperazin-1-yl)ethyl]cyclohexyl}propanamide]	170
N#CCC(=O)N[C@H]1CC[C@H](CCN2CCN(c3cccc4cccnc34)CC2)CC1 [Example 237, 2-Cyano-N-{4-[2-(4-quinolin-8-ylpiperazin-1-yl)ethyl]-cyclohexyl}acetamide]	225
N#CCC(=O)N[C@H]1CC[C@H](CCN2CCN(c3cccc4ncccc34)CC2)CC1 [Example 239, 2-Cyano-N-{4-[2-(4-quinolin-5-ylpiperazin-1-yl)ethyl]cyclohexyl}acetamide]	220
CCOc1ccccc1N1CCN(CC[C@H]2CC[C@H](NC(=O)CC#N)CC2)CC1 [Example 243, 2-Cyano-N-(4-{2-[4-(2-ethoxyphenyl)piperazin-1-yl]ethyl}cyclohexyl)acetamide]	138
CC(C)(C)c1nc(N2CCN(CC[C@H]3CC[C@H](NC(=O)CCC#N)CC3)CC2)cc(C(F)(F)F)n1 [Example 244]	151
